Consider 16 molecules from PMC11241395 (International Journal of Molecular Sciences, 2024).

The IC50 is the midpoint of a concentration-inhibition curve. By melting point is commonly meant the temperature, or range, at which the solid turns liquid.

Data set [1] has as its system HDF (regular fibroblast cell line). Description: MTT cytotoxicity assay, normal HDF cells. Type of data set: cell-based. The conditions noted are these: Homo sapiens, read-out: IC50 (SD), HDF. Here is the method: (§1) This activity was evaluated in vitro using the standard MTT method (enzymatic reduction of 3-[4,5-dimethylthiazole-2-yl]-2,5-diphenyltetrazolium bromide, MTT, to MTT-formazan) based on a viability assay.
(§2) Cytotoxic activity: Human cancer cells SKBR-3 (human breast cancer cell line) and SKOV-3 (ovarian cancer cell line) were cultured in McCoy’s Modified Medium. Human cancer cells PC-3 (human prostate cancer cell line) were cultured in an F-12K medium. The Human Dermal Fibroblast (HDF) cell line was cultured in Fibroblast Basal Medium. The U-87 cell line was cultured in EMEM medium. Each medium was supplemented with 10% foetal bovine serum, 1% L- glutamine, and 1% penicillin/streptomycin solution. The cell lines were kept in an incubator at 37 °C. All the cell lines and mediums were obtained from the American Type Culture Collection (ATCC) supplied by LGC-Standards (Lomianki, Poland).
(§3) The MTT assay was conducted as described earlier.

The test system of data set [2] is SKBR-3, SKOV-3, PC-3, and U-87 cancer cell lines. Description: MTT cytotoxicity assay, four cancer cell lines taken together. Type of data set: cell-based, human. To be noted: span over the four cancer cell lines. The protocol:
as §1, §2, §3
A general note: Tetrazolium assays rely on reduction of a dye to a coloured formazan, in cell work by metabolically active cells.

Data set [3] can be described thus: DPPH radical-scavenging assay. The conditions noted are these: sample 1.0 mg/mL in DMSO, 30 min, 517 nm; compared with OA (1). Here is the method:
The results are presented as % inhibition of the DPPH radical and Trolox equivalent, calculated from the standard curve (Figure 4). Activity assays were performed in eight repetitions.
The 2,2-diphenyl-1-picrylhydrazyl (DPPH) assay was performed according to Garbiec et al. with modifications. Briefly, 25 μL of the sample at a concentration of 1.0 mg/mL dissolved in dimethyl sulfoxide (DMSO) was mixed with 175 μL of DPPH solution (3.9 mg in 50 mL of methanol). The reaction mixture was shaken and incubated in the dark at room temperature for 30 min. The control sample contained 25 μL of DMSO and 175 μL of DPPH solution. Absorbance was measured at 517 nm. The inhibition of the DPPH radical by the sample was calculated according to the following formula: DPPH-scavenging activity (%) = ((AC − AS)/AC) × 100% where AC is the absorbance of the control and AS is the absorbance of the sample.
The results were presented as % inhibition of the DPPH radical and Trolox equivalent, calculated from the standard curve. Activity assays were performed in 8 repetitions.
(The DPPH test is a chemical assay of radical scavenging.)

For data set [4], the system named is U-87 (human glioblastoma). Description: MTT cytotoxicity assay, U-87. The conditions noted are these: read-out: IC50 (SD), U-87. It counts as cell-based. Here is the method:
as §1, §2, §3

The subject of data set [5] is SKBR-3 (human breast adenocarcinoma). In words: MTT cytotoxicity assay, SKBR-3. The conditions noted are these: SK-BR-3, read-out: IC50 (SD), SKBR-3. It counts as cell-based. Here is the method: as §1, §2, §3
The test system of data set [6] is PC-3 (human prostate carcinoma). In words: MTT cytotoxicity assay, PC-3. It counts as cell-based. To be noted: read-out: IC50 (SD), PC-3. Here is the method:
as §1, §2, §3

The subject of data set [7] is SKOV-3 (human ovarian cystadenocarcinoma). Description: MTT cytotoxicity assay, SKOV-3. It counts as cell-based. The conditions noted are these: SK-OV-3, read-out: IC50 (SD), SKOV-3. Here is the method: as §1, §2, §3

Molecules are shown by their SMILES. “Also recorded” adds a separate entry of the source. Read-outs that look alike come from different tables or passages of the source.

With `CC1(C)CC[C@]2(C(=O)OC/C=C/COC(=O)[C@]34CCC(C)(C)CC3C3=CCC5[C@@]6(C)CC[C@H](O)C(C)(C)C6CC[C@@]5(C)[C@]3(C)CC4)CC[C@]3(C)C(=CCC4[C@@]5(C)CC[C@H](O)C(C)(C)C5CC[C@]43C)C2C1` (stereo partly shown) [Compound 2f], the IC50 in data set [1] is 2.78 µM; in data set [2] (Homo sapiens), 4.79 to 8.22 µM; in data set [4], 4.91 µM; in data set [5], 5.09 µM; in data set [6], 5.11 µM; in data set [7] it was 4.79 µM. Moreover, the “DPPH radical inhibition expressed as Trolox equivalent” value (“DPPH radical inhibition expressed” below) in data set [3] is “highest level of antioxidant activity; also recorded: significantly higher”.
`CC1(C)CC[C@]2(C(=O)OCCCCCCCCCOC(=O)[C@]34CCC(C)(C)CC3C3=CCC5[C@@]6(C)CC[C@H](O)C(C)(C)C6CC[C@@]5(C)[C@]3(C)CC4)CC[C@]3(C)C(=CCC4[C@@]5(C)CC[C@H](O)C(C)(C)C5CC[C@]43C)C2C1` (stereo partly shown) [Compound 2k]: the IC50 in data set [1] was 16.8 µM; in data set [2] (Homo sapiens), 4.79 to 8.22 µM; in data set [4], 7.34 µM; in data set [5], 6.93 µM; in data set [6], 6.93 µM; in data set [7] it was 6.89 µM.
Turning to `CC1(C)CC[C@]2(C(=O)OCOC(=O)[C@]34CCC(C)(C)CC3C3=CCC5[C@@]6(C)CC[C@H](O)C(C)(C)C6CC[C@@]5(C)[C@]3(C)CC4)CC[C@]3(C)C(=CCC4[C@@]5(C)CC[C@H](O)C(C)(C)C5CC[C@]43C)C2C1` (stereo partly shown) [Compound 2a], the IC50 in data set [1] was 6.56 µM; in data set [2] (Homo sapiens), 3.06 to 4.58 µM; in data set [4], 3.32 µM; in data set [5], 3.96 µM; in data set [6], 3.38 µM; in data set [7], 3.89 µM. The “DPPH radical inhibition expressed” value in data set [3] is “by far the highest activity; also recorded: significantly higher”.
Turning to `CC1(C)CC[C@]2(C(=O)OCCOC(=O)[C@]34CCC(C)(C)CC3C3=CCC5[C@@]6(C)CC[C@H](O)C(C)(C)C6CC[C@@]5(C)[C@]3(C)CC4)CC[C@]3(C)C(=CCC4[C@@]5(C)CC[C@H](O)C(C)(C)C5CC[C@]43C)C2C1` (stereo partly shown) [Compound 2b], the IC50 is 11.2 µM in data set [1]; 4.79 to 8.22 µM in data set [2] (Homo sapiens); 6.59 µM in data set [4]; 6.67 µM in data set [5]; 6.43 µM in data set [6]; 6.49 µM in data set [7]. For the same molecule, in data set [3], the “DPPH radical inhibition expressed” value is on record as “highest level of antioxidant activity; also recorded: significantly higher”.
Take `CC1(C)CC[C@]2(C(=O)OCCCCOC(=O)[C@]34CCC(C)(C)CC3C3=CCC5[C@@]6(C)CC[C@H](O)C(C)(C)C6CC[C@@]5(C)[C@]3(C)CC4)CC[C@]3(C)C(=CCC4[C@@]5(C)CC[C@H](O)C(C)(C)C5CC[C@]43C)C2C1` (stereo partly shown) [Compound 2d]: the IC50 stood at 2.95 µM in data set [1]; 1.2 µM in data set [4]; 1.12 µM in data set [5]; 1.64 µM in data set [6]; 1.56 µM in data set [7].
`CC1(C)CC[C@]2(C(=O)OCCCCCCCCCCCCOC(=O)[C@]34CCC(C)(C)CC3C3=CCC5[C@@]6(C)CC[C@H](O)C(C)(C)C6CC[C@@]5(C)[C@]3(C)CC4)CC[C@]3(C)C(=CCC4[C@@]5(C)CC[C@H](O)C(C)(C)C5CC[C@]43C)C2C1` (stereo partly shown) [Compound 2n]: the IC50 in data set [1] was 7.3 µM; in data set [2] (Homo sapiens), 4.79 to 8.22 µM; in data set [4] it was 6.51 µM; in data set [5], 6.79 µM; in data set [6], 6.96 µM; in data set [7] it was 7.41 µM.
As for `CC1(C)CC[C@]2(C(=O)OCCCCCOC(=O)[C@]34CCC(C)(C)CC3C3=CCC5[C@@]6(C)CC[C@H](O)C(C)(C)C6CC[C@@]5(C)[C@]3(C)CC4)CC[C@]3(C)C(=CCC4[C@@]5(C)CC[C@H](O)C(C)(C)C5CC[C@]43C)C2C1` (stereo partly shown) [Compound 2g], the half-inhibitory concentration (IC50) in data set [1] was 3.37 µM; in data set [2] (Homo sapiens), 4.79 to 8.22 µM; in data set [4], 5.32 µM; in data set [5], 5.21 µM; in data set [6], 5.8 µM; in data set [7] it was 5.16 µM.
For `CC1(C)CC[C@]2(C(=O)OCCCCCCCOC(=O)[C@]34CCC(C)(C)CC3C3=CCC5[C@@]6(C)CC[C@H](O)C(C)(C)C6CC[C@@]5(C)[C@]3(C)CC4)CC[C@]3(C)C(=CCC4[C@@]5(C)CC[C@H](O)C(C)(C)C5CC[C@]43C)C2C1` (stereo partly shown) [Compound 2i], the IC50 is 5.39 µM in data set [1]; 3.06 to 4.58 µM in data set [2] (Homo sapiens); 3.06 µM in data set [4]; 3.46 µM in data set [5]; 3.16 µM in data set [6]; 3.68 µM in data set [7].
`CC1(C)CC[C@]2(C(=O)OCOC(=O)[C@]34CCC(C)(C)CC3C3=CCC5[C@@]6(C)CC[C@H](O)C(C)(C)C6CC[C@@]5(C)[C@]3(C)CC4)CC[C@]3(C)C(=CCC4[C@@]5(C)CC[C@H](O)C(C)(C)C5CC[C@]43C)C2C1` (stereo partly shown) (hydrate or solvate) [Compound 2a] showed a melting point of 183 to 185 °C.
On to `CC1(C)CC[C@]2(C(=O)OC/C=C\COC(=O)[C@]34CCC(C)(C)CC3C3=CCC5[C@@]6(C)CC[C@H](O)C(C)(C)C6CC[C@@]5(C)[C@]3(C)CC4)CC[C@]3(C)C(=CCC4[C@@]5(C)CC[C@H](O)C(C)(C)C5CC[C@]43C)C2C1` (stereo partly shown) [Compound 2e], for which the IC50 stood at 2.68 µM in data set [1]; 2.74 µM in data set [4]; 2.61 µM in data set [5]; 2.27 µM in data set [6]; 2.09 µM in data set [7].
`CC1(C)CC[C@]2(C(=O)OCCCCCCCCCCCOC(=O)[C@]34CCC(C)(C)CC3C3=CCC5[C@@]6(C)CC[C@H](O)C(C)(C)C6CC[C@@]5(C)[C@]3(C)CC4)CC[C@]3(C)C(=CCC4[C@@]5(C)CC[C@H](O)C(C)(C)C5CC[C@]43C)C2C1` (stereo partly shown) [Compound 2m]: the IC50 in data set [1] was 7.43 µM; in data set [2] (Homo sapiens), 3.06 to 4.58 µM; in data set [4] it was 4.25 µM; in data set [5] it was 3.93 µM; in data set [6], 3.91 µM; in data set [7], 4.58 µM.
Regarding `CC1(C)CC[C@]2(C(=O)OCCCCCCOC(=O)[C@]34CCC(C)(C)CC3C3=CCC5[C@@]6(C)CC[C@H](O)C(C)(C)C6CC[C@@]5(C)[C@]3(C)CC4)CC[C@]3(C)C(=CCC4[C@@]5(C)CC[C@H](O)C(C)(C)C5CC[C@]43C)C2C1` (stereo partly shown) [Compound 2h], the IC50 in data set [1] was 17.3 µM; in data set [4], 5.87 µM; in data set [5] it was 6.02 µM; in data set [6], 5.34 µM; in data set [7] it was 5.39 µM.
With `CC1(C)CC[C@]2(C(=O)OCCCCCCCCOC(=O)[C@]34CCC(C)(C)CC3C3=CCC5[C@@]6(C)CC[C@H](O)C(C)(C)C6CC[C@@]5(C)[C@]3(C)CC4)CC[C@]3(C)C(=CCC4[C@@]5(C)CC[C@H](O)C(C)(C)C5CC[C@]43C)C2C1` (stereo partly shown) [Compound 2j], the IC50 is 16 µM in data set [1]; 9.81 to 10.7 µM in data set [2] (Homo sapiens); 10.7 µM in data set [4]; 9.99 µM in data set [5]; 9.81 µM in data set [6]; 10.3 µM in data set [7].
For the molecule `CC1(C)CC[C@]2(C(=O)O)CC[C@]3(C)C(=CC[C@@H]4[C@@]5(C)CC[C@H](O)C(C)(C)[C@@H]5CC[C@]43C)[C@@H]2C1` [1 (OA), Oleanolic acid, reference compound], the IC50 is roughly 25 µM in data set [1] (HDF); 18 to 19 µM in data set [2] (Homo sapiens); 18.2 µM in data set [4]; 19.6 µM in data set [5]; 18.8 µM in data set [7].
Turning to `CC1(C)CC[C@]2(C(=O)OCCCOC(=O)[C@]34CCC(C)(C)CC3C3=CCC5[C@@]6(C)CC[C@H](O)C(C)(C)C6CC[C@@]5(C)[C@]3(C)CC4)CC[C@]3(C)C(=CCC4[C@@]5(C)CC[C@H](O)C(C)(C)C5CC[C@]43C)C2C1` (stereo partly shown) [Compound 2c], the IC50 in data set [1] is 18.9 µM; in data set [2] (Homo sapiens), 4.79 to 8.22 µM; in data set [4], 7.46 µM; in data set [5] it was 7.64 µM; in data set [6], 7.4 µM; in data set [7], 8.22 µM.
Take `CC1(C)CC[C@]2(C(=O)OCCCCCCCCCCOC(=O)[C@]34CCC(C)(C)CC3C3=CCC5[C@@]6(C)CC[C@H](O)C(C)(C)C6CC[C@@]5(C)[C@]3(C)CC4)CC[C@]3(C)C(=CCC4[C@@]5(C)CC[C@H](O)C(C)(C)C5CC[C@]43C)C2C1` (stereo partly shown) [Compound 2l]: the IC50 turned out to be 36.3 µM in data set [1]; 18.4 µM in data set [2] (Homo sapiens); 18.7 µM in data set [2]; 18.7 µM in data set [4]; 18.7 µM in data set [5]; 18.4 µM in data set [6]. In addition, the IC50 in data set [7] turned out to be 18.4 µM.
